Laboratory results from ChEMBL document CHEMBL2439971, “Design, synthesis and antiproliferative evaluation of fluorenone analogs with DNA topoisomerase I inhibitory properties” (Bioorg Med Chem, 2013).

Tests used:
Assay type in all cases: functional
[1] = tested on: KM12; test: Cytotoxicity against human KM12 cells at 10 uM after 48 hrs by sulforhodamine B assay relative to control
[2] = tested on: UO-31; test: Cytotoxicity against human UO31 cells at 10 uM after 48 hrs by sulforhodamine B assay relative to control
[3] = tested on: SF-295; test: Cytotoxicity against human SF295 cells after 48 hrs by sulforhodamine B assay; settings: SF-295, 48 h
[4] = tested on: 786-0; test: Cytotoxicity against human 786-0 cells at 10 uM after 48 hrs by sulforhodamine B assay relative to control
[5] = tested on: TK-10; test: Cytotoxicity against human TK10 cells at 10 uM after 48 hrs by sulforhodamine B assay relative to control
[6] = tested on: HOP-92; test: Cytotoxicity against human HOP92 cells at 10 uM after 48 hrs by sulforhodamine B assay relative to control
[7] = tested on: OVCAR-4; test: Cytotoxicity against human OVCAR4 cells at 10 uM after 48 hrs by sulforhodamine B assay relative to control
[8] = tested on: SN12C; test: Cytotoxicity against human SN12C cells at 10 uM after 48 hrs by sulforhodamine B assay relative to control
[9] = Cytotoxicity against human Hs 578T cells after 48 hrs by sulforhodamine B assay
[10] = tested on: MDA-MB-435; test: Cytotoxicity against human MDA-MB-435 cells at 10 uM after 48 hrs by sulforhodamine B assay relative to control
[11] = tested on: MOLT-4; test: Cytotoxicity against human MOLT4 cells at 10 uM after 48 hrs by sulforhodamine B assay relative to control
[12] = tested on: HCT-15; test: Cytotoxicity against human HCT15 cells at 10 uM after 48 hrs by sulforhodamine B assay relative to control
[13] = tested on: SNB-19; test: Cytotoxicity against human SNB19 cells at 10 uM after 48 hrs by sulforhodamine B assay relative to control
[14] = tested on: HOP-92; test: Cytotoxicity against human HOP92 cells after 48 hrs by sulforhodamine B assay; settings: HOP-92, 48 h
[15] = tested on: K562; test: Cytotoxicity against human K562 cells after 48 hrs by sulforhodamine B assay; settings: K562, 48 h
[16] = tested on: MCF7; test: Cytotoxicity against human MCF7 cells after 48 hrs by sulforhodamine B assay; settings: MCF7, 48 h
[17] = tested on: KM12; test: Cytotoxicity against human KM12 cells after 48 hrs by sulforhodamine B assay; settings: KM12, 48 h
[18] = tested on: UO-31; test: Cytotoxicity against human UO31 cells after 48 hrs by sulforhodamine B assay; settings: UO-31, 48 h
[19] = tested on: SF-295; test: Cytotoxicity against human SF295 cells at 10 uM after 48 hrs by sulforhodamine B assay relative to control
[20] = tested on: NCI-H226; test: Cytotoxicity against human NCI-H226 cells at 10 uM after 48 hrs by sulforhodamine B assay relative to control
[21] = tested on: NCI-H460; test: Cytotoxicity against human NCI-H460 cells after 48 hrs by sulforhodamine B assay; settings: NCI-H460, 48 h
[22] = tested on: OVCAR-3; test: Cytotoxicity against human OVCAR3 cells at 10 uM after 48 hrs by sulforhodamine B assay relative to control
[23] = tested on: NCI/ADR-RES; test: Cytotoxicity against human NCI/ADR-RES cells at 10 uM after 48 hrs by sulforhodamine B assay relative to control
[24] = tested on: MDA-MB-231; test: Cytotoxicity against human MDA-MB-231 cells at 10 uM after 48 hrs by sulforhodamine B assay relative to control
[25] = tested on: RXF 393; test: Cytotoxicity against human RXF393 cells after 48 hrs by sulforhodamine B assay; settings: RXF 393, 48 h
[26] = tested on: OVCAR-3; test: Cytotoxicity against human OVCAR3 cells after 48 hrs by sulforhodamine B assay; settings: OVCAR-3, 48 h
[27] = tested on: DU-145; test: Cytotoxicity against human DU145 cells at 10 uM after 48 hrs by sulforhodamine B assay relative to control
[28] = tested on: U-251; test: Cytotoxicity against human U251 cells at 10 uM after 48 hrs by sulforhodamine B assay relative to control
[29] = tested on: CCRF-CEM; test: Cytotoxicity against human CCRF-CEM cells at 10 uM after 48 hrs by sulforhodamine B assay relative to control
[30] = tested on: UACC-62; test: Cytotoxicity against human UACC62 cells after 48 hrs by sulforhodamine B assay; settings: UACC-62, 48 h
[31] = tested on: NCI-H522; test: Cytotoxicity against human NCI-H522 cells after 48 hrs by sulforhodamine B assay; settings: NCI-H522, 48 h
[32] = tested on: IGROV-1; test: Cytotoxicity against human IGROV1 cells after 48 hrs by sulforhodamine B assay; settings: IGROV-1, 48 h
[33] = tested on: DU-145; test: Cytotoxicity against human DU145 cells after 48 hrs by sulforhodamine B assay; settings: DU-145, 48 h
[34] = tested on: SK-MEL-5; test: Cytotoxicity against human SK-MEL-5 cells at 10 uM after 48 hrs by sulforhodamine B assay relative to control
[35] = tested on: CAKI-1; test: Cytotoxicity against human CAKI-1 cells after 48 hrs by sulforhodamine B assay; settings: CAKI-1, 48 h
[36] = tested on: RPMI-8226; test: Cytotoxicity against human RPMI8226 cells after 48 hrs by sulforhodamine B assay; settings: RPMI-8226, 48 h
[37] = tested on: HOP-62; test: Cytotoxicity against human HOP62 cells at 10 uM after 48 hrs by sulforhodamine B assay relative to control
[38] = tested on: IGROV-1; test: Cytotoxicity against human IGROV1 cells at 10 uM after 48 hrs by sulforhodamine B assay relative to control
[39] = tested on: MDA-MB-468; test: Cytotoxicity against human MDA-MB-468 cells after 48 hrs by sulforhodamine B assay; settings: MDA-MB-468, 48 h
[40] = tested on: A549; test: Cytotoxicity against human A549/ATCC cells after 48 hrs by sulforhodamine B assay; settings: A549, 48 h
[41] = read-out: LC50 (the source's name)

What does the source list for `CCCCNCC(=O)Nc1ccc2c(c1)C(=O)c1cc(NC(=O)CNCCCC)ccc1-2`?
Activity [1]: 30.09%; Activity [2]: -42.01%; GI50 [3]: 1670 nM; TGI [3]: 3.47 µM; CC50 [3, 41]: 7.2 µM; Activity [4]: -73.24%; Activity [5]: 7.32%; Activity [6]: 6.92%; Activity [7]: -29.46%; Activity [8]: 67.76%; GI50 [9]: 2630 nM; TGI [9]: 9.23 µM; CC50 [9, 41]: 70.9 µM; Activity [10]: -58.56%; Activity [11]: -42.18%; Activity [12]: 24.17%; Activity [13]: 39.02%; GI50 [14]: 1400 nM; TGI [14]: 3.77 µM; CC50 [14, 41]: 10.6 µM; GI50 [15]: 390 nM; TGI [15]: 1560 nM; CC50 [15, 41]: 5.7 µM; GI50 [16]: 2250 nM; TGI [16]: 8.79 µM; CC50 [16, 41]: 4.4 µM; GI50 [17]: 1640 nM; TGI [17]: 3.38 µM; CC50 [17, 41]: 7 µM; GI50 [18]: 2040 nM; TGI [18]: 5.47 µM; CC50 [18, 41]: 25.2 µM; Activity [19]: -26.11%; Activity [20]: 67.92%; GI50 [21]: 1490 nM; TGI [21]: 3.35 µM; CC50 [21, 41]: 7.53 µM; Activity [22]: -51.72%; Activity [23]: 64.82%; Activity [24]: -27.12%; GI50 [25]: 1830 nM; TGI [25]: 3.52 µM; CC50 [25, 41]: 6.78 µM; GI50 [26]: 1730 nM; TGI [26]: 3.23 µM; CC50 [26, 41]: 6.05 µM; Activity [27]: 35.16%; Activity [28]: -57.52%; Activity [29]: -35.23%; GI50 [30]: 1610 nM; TGI [30]: 3.03 µM; CC50 [30, 41]: 5.69 µM; GI50 [31]: 2080 nM; TGI [31]: 4.08 µM; CC50 [31, 41]: 7.99 µM; GI50 [32]: 2240 nM; TGI [32]: 6.53 µM; CC50 [32, 41]: 40.6 µM; GI50 [33]: 1430 nM; TGI [33]: 3.37 µM; CC50 [33, 41]: 7.94 µM; Activity [34]: -87.04%; GI50 [35]: 1790 nM; TGI [35]: 6.45 µM; CC50 [35, 41]: 26.9 µM; GI50 [36]: 1860 nM; TGI [36]: 4.9 µM; CC50 [36, 41]: 4.6 µM; Activity [37]: -5.44%; Activity [38]: 46.91%; GI50 [39]: 1850 nM; TGI [39]: 3.57 µM; CC50 [39, 41]: 6.89 µM; GI50 [40]: 1530 nM; TGI [40]: 3.37 µM; CC50 [40, 41]: 7.39 µM
